Measurements published in paper PMC5218480 (PLoS ONE, 2017).

Tested on: MV-4-11 cells
Assay: Gene expression microarray analysis (Affymetrix PrimeView) and GSEA
Format: cell-based, human
Set-up: RFU PODN (11730768_x_at) / Fold change /veh PODN (11730768_x_at) / RFU LINC00158 (11744669_a_at) / Fold change /veh LINC00158 (11744669_a_at) / RFU DUSP10 (11751237_a_at) / Fold change /veh DUSP10 (11751237_a_at) / RFU ID3 (11757404_x_at) / Fold change /veh ID3 (11757404_x_at) / RFU PLEKHG5 (11737974_s_at) / Fold change /veh PLEKHG5 (11737974_s_at) / RFU LRRC4B (11730491_at) / Fold change /veh LRRC4B (11730491_at) / RFU GIMAP4 (11747438_a_at) / Fold change /veh GIMAP4 (11747438_a_at) / RFU KRT8 (11758183_x_at) / Fold change /veh KRT8 (11758183_x_at) / RFU CNN1 (11734310_a_at) / Fold change /veh CNN1 (11734310_a_at) / RFU VPS37D (11726825_at) / Fold change /veh VPS37D (11726825_at) / RFU C10orf10 (11716522_x_at) / Fold change /veh C10orf10 (11716522_x_at) / RFU KIR2DL2 /// KIR2DL4 /// KIR2DL5A /// KIR2DL5B /// KIR2DS1 /// KIR2DS2 /// KIR2DS3 /// KIR2DS4 /// KIR3DL3 /// KIR3DL3 /// KIR3DS1 (11738374_at) / Fold change /veh KIR2DL2 /// KIR2DL4 /// KIR2DL5A /// KIR2DL5B /// KIR2DS1 /// KIR2DS2 /// KIR2DS3 /// KIR2DS4 /// KIR3DL3 /// KIR3DL3 /// KIR3DS1 (11738374_at) / RFU C1QL1 (11718748_at) / Fold change /veh C1QL1 (11718748_at) / RFU TMPRSS4 (11747572_a_at) / Fold change /veh TMPRSS4 (11747572_a_at) / RFU HAMP (11756126_x_at) / Fold change /veh HAMP (11756126_x_at) / RFU RNFT2 (11725882_a_at) / Fold change /veh RNFT2 (11725882_a_at) / RFU NR4A2 (11747474_a_at) / Fold change /veh NR4A2 (11747474_a_at) / RFU ABCC12 (11746883_a_at) / Fold change /veh ABCC12 (11746883_a_at) / RFU TMEM136 (11760407_x_at) / Fold change /veh TMEM136 (11760407_x_at) / RFU CLDN22 /// WWC2 (11732394_at) / Fold change /veh CLDN22 /// WWC2 (11732394_at) / RFU HLA-DPB1 (11760878_x_at) / Fold change /veh HLA-DPB1 (11760878_x_at) / RFU SPINT1 (11716480_a_at) / Fold change /veh SPINT1 (11716480_a_at) / RFU GAP43 (11754022_s_at) / Fold change /veh GAP43 (11754022_s_at) / RFU A4GNT (11735810_at) / Fold change /veh A4GNT (11735810_at) / RFU PRB3 (11715151_x_at) / Fold change /veh PRB3 (11715151_x_at) / RFU TUBB4B (11761932_at) / Fold change /veh TUBB4B (11761932_at) / RFU CAPN14 (11732068_a_at) / Fold change /veh CAPN14 (11732068_a_at) / RFU TMCC2 (11721928_a_at) / Fold change /veh TMCC2 (11721928_a_at) / RFU IRGQ (11745062_a_at) / Fold change /veh IRGQ (11745062_a_at) / RFU FAM174B (11720279_a_at) / Fold change /veh FAM174B (11720279_a_at) / RFU TMPRSS4 (11748680_a_at) / Fold change /veh TMPRSS4 (11748680_a_at) / RFU FAM212B (11763350_a_at) / Fold change /veh FAM212B (11763350_a_at) / RFU PLEKHG5 (11743358_a_at) / Fold change /veh PLEKHG5 (11743358_a_at) / RFU ZSCAN30 (11745921_a_at) / Fold change /veh ZSCAN30 (11745921_a_at) / RFU CMKLR1 (11741424_a_at) / Fold change /veh CMKLR1 (11741424_a_at) / RFU LOC101060620 /// MAPK8IP1 (11723275_at) / Fold change /veh LOC101060620 /// MAPK8IP1 (11723275_at) / RFU SPTSSB (11747773_x_at) / Fold change /veh SPTSSB (11747773_x_at) / RFU PRSS12 (11739890_at) / Fold change /veh PRSS12 (11739890_at) / RFU BIN1 (11741810_x_at) / Fold change /veh BIN1 (11741810_x_at) / RFU WNT11 (11732464_a_at) / Fold change /veh WNT11 (11732464_a_at) / RFU C10orf10 (11716521_a_at) / Fold change /veh C10orf10 (11716521_a_at) / RFU C5orf56 (11738089_at) / Fold change /veh C5orf56 (11738089_at) / RFU CYB561 (11721691_x_at) / Fold change /veh CYB561 (11721691_x_at) / RFU ANKRD19P (11752326_a_at) / Fold change /veh ANKRD19P (11752326_a_at) / RFU OR2T12 /// OR2T33 /// OR2T8 (11738714_s_at) / Fold change /veh OR2T12 /// OR2T33 /// OR2T8 (11738714_s_at) / RFU VCAN (11748164_a_at) / Fold change /veh VCAN (11748164_a_at) / RFU JSRP1 (11732532_at) / Fold change /veh JSRP1 (11732532_at) / RFU KRTAP10-11 (11738290_x_at) / Fold change /veh KRTAP10-11 (11738290_x_at) / RFU MYO3A (11730013_a_at) / Fold change /veh MYO3A (11730013_a_at) / RFU EBF3 (11725865_a_at) / Fold change /veh EBF3 (11725865_a_at) / RFU CAMK2N1 (11719241_x_at) / Fold change /veh CAMK2N1 (11719241_x_at) / RFU C5orf56 (11738088_a_at) / Fold change /veh C5orf56 (11738088_a_at) / RFU OLFML3 (11715873_a_at) / Fold change /veh OLFML3 (11715873_a_at) / RFU LOC100653217 /// NTM (11731650_a_at) / Fold change /veh LOC100653217 /// NTM (11731650_a_at) / RFU MAPK11 (11762145_a_at) / Fold change /veh MAPK11 (11762145_a_at) / RFU FIZ1 (11724087_x_at) / Fold change /veh FIZ1 (11724087_x_at) / RFU OASL (11726364_x_at) / Fold change /veh OASL (11726364_x_at) / RFU SOX15 (11748057_x_at) / Fold change /veh SOX15 (11748057_x_at) / RFU CD79A (11719716_a_at) / Fold change /veh CD79A (11719716_a_at) / RFU HIST1H1D (11736915_at) / Fold change /veh HIST1H1D (11736915_at) / RFU CASKIN2 (11723855_a_at) / Fold change /veh CASKIN2 (11723855_a_at) / RFU LOC730098 (11760151_x_at) / Fold change /veh LOC730098 (11760151_x_at) / RFU OR4N2 (11742367_at) / Fold change /veh OR4N2 (11742367_at) / RFU PRRT2 (11749266_a_at) / Fold change /veh PRRT2 (11749266_a_at) / RFU SNX32 (11753110_a_at) / Fold change /veh SNX32 (11753110_a_at) / RFU CDHR5 (11726645_a_at) / Fold change /veh CDHR5 (11726645_a_at) / RFU RCAN1 (11760418_a_at) / Fold change /veh RCAN1 (11760418_a_at) / RFU FAM167A (11723789_a_at) / Fold change /veh FAM167A (11723789_a_at) / RFU FAM26E (11764081_at) / Fold change /veh FAM26E (11764081_at) / RFU ISYNA1 (11749810_s_at) / Fold change /veh ISYNA1 (11749810_s_at) / RFU ACY1 (11761880_at) / Fold change /veh ACY1 (11761880_at) / RFU 11764098_at / Fold change /veh 11764098_at / RFU SAMD14 (11745864_x_at) / Fold change /veh SAMD14 (11745864_x_at) / RFU NPB (11741838_a_at) / Fold change /veh NPB (11741838_a_at) / RFU TMPRSS6 (11731388_a_at) / Fold change /veh TMPRSS6 (11731388_a_at) / RFU KRTAP10-2 (11738614_at) / Fold change /veh KRTAP10-2 (11738614_at) / RFU ARHGAP8 /// PRR5-ARHGAP8 (11727945_x_at) / Fold change /veh ARHGAP8 /// PRR5-ARHGAP8 (11727945_x_at) / RFU KRTAP5-7 /// NADSYN1 (11734609_at) / Fold change /veh KRTAP5-7 /// NADSYN1 (11734609_at) / RFU RASL12 (11751679_a_at) / Fold change /veh RASL12 (11751679_a_at) / RFU CDKN2B (11736163_a_at) / Fold change /veh CDKN2B (11736163_a_at) / RFU PRF1 (11729649_at) / Fold change /veh PRF1 (11729649_at) / RFU, ZNF638 /// ZNF638-IT1 / Fold change vs veh, ZNF638 /// ZNF638-IT1 / RFU, PANK3 / Fold change vs veh, PANK3 / RFU, SH3YL1 / Fold change vs veh, SH3YL1 / RFU, ZEB2 / Fold change vs veh, ZEB2 / RFU, NRIP1 / Fold change vs veh, NRIP1 / RFU, PTTG1IP / Fold change vs veh, PTTG1IP / RFU, CAPN2 / Fold change vs veh, CAPN2 / RFU, MED14 / Fold change vs veh, MED14 / RFU, SNORA58 / Fold change vs veh, SNORA58 / RFU, C1orf63 / Fold change vs veh, C1orf63 / RFU, LRRFIP1 / Fold change vs veh, LRRFIP1 / RFU, NDUFAF7 / Fold change vs veh, NDUFAF7 / RFU, SLC12A2 / Fold change vs veh, SLC12A2 / RFU, IBTK / Fold change vs veh, IBTK / RFU, ESF1 / Fold change vs veh, ESF1 / Fold change vs veh, TMEM50B / RFU, TAOK1 / Fold change vs veh, TAOK1 / RFU, ACBD3 / Fold change vs veh, ACBD3 / RFU, TMA16 / Fold change vs veh, TMA16 / RFU, RWDD3 / Fold change vs veh, RWDD3 / RFU, BCAT1 / Fold change vs veh, BCAT1 / RFU, EDEM3 / Fold change vs veh, EDEM3 / RFU, TMEM33 / Fold change vs veh, TMEM33 / RFU, WDR75 / Fold change vs veh, WDR75 / RFU, AHCTF1 / Fold change vs veh, AHCTF1 / RFU, TFRC / Fold change vs veh, TFRC / RFU, ZDHHC17 / Fold change vs veh, ZDHHC17 / RFU, NOM1 / Fold change vs veh, NOM1 / RFU, ARL8B / Fold change vs veh, ARL8B / RFU, ZBTB11 / Fold change vs veh, ZBTB11 / RFU, TAMM41 / Fold change vs veh, TAMM41 / RFU, KIAA1704 /// LOC100996395 / Fold change vs veh, KIAA1704 /// LOC100996395 / RFU, ING1 / Fold change vs veh, ING1 / RFU, TRMT61B / Fold change vs veh, TRMT61B / RFU, FUBP3 / Fold change vs veh, FUBP3 / RFU, TP53 / Fold change vs veh, TP53 / RFU, TNKS2 / Fold change vs veh, TNKS2 / RFU, ZFP14 / Fold change vs veh, ZFP14 / RFU, ACTR2 / Fold change vs veh, ACTR2 / RFU, PPP3R1 / Fold change vs veh, PPP3R1 / RFU, PIK3R1 / Fold change vs veh, PIK3R1 / RFU, HNRNPA1 / Fold change vs veh, HNRNPA1 / RFU, RNF170 / Fold change vs veh, RNF170 / RFU, ZNF28 / Fold change vs veh, ZNF28 / RFU, RNGTT / Fold change vs veh, RNGTT / RFU, OGT / Fold change vs veh, OGT / RFU, BRD1 / Fold change vs veh, BRD1 / RFU, MARS / Fold change vs veh, MARS / RFU, ZNF655 / Fold change vs veh, ZNF655 / RFU, FAHD1 / Fold change vs veh, FAHD1 / RFU, BDP1 / Fold change vs veh, BDP1 / RFU, LRRCC1 / Fold change vs veh, LRRCC1 / RFU, ARID1A / Fold change vs veh, ARID1A / RFU, ZNF146 / Fold change vs veh, ZNF146 / RFU, ZNF330 / Fold change vs veh, ZNF330 / RFU, GPN3 / Fold change vs veh, GPN3 / RFU, C9orf123 / Fold change vs veh, C9orf123 / RFU, N4BP2L2 / Fold change vs veh, N4BP2L2 / RFU, ARFIP1 / Fold change vs veh, ARFIP1 / RFU, FAM179B / Fold change vs veh, FAM179B / RFU, BCL10 / Fold change vs veh, BCL10 / RFU, UHRF1BP1L / Fold change vs veh, UHRF1BP1L / RFU, BET1 / Fold change vs veh, BET1 / RFU, CNOT2 / Fold change vs veh, CNOT2 / RFU, ZNF268 / Fold change vs veh, ZNF268 / Fold change vs veh, ZNF507 / RFU, DGCR2 / Fold change vs veh, DGCR2 / RFU, WDSUB1 / Fold change vs veh, WDSUB1 / Fold change vs veh, HSP90B1 /// MIR3652 / RFU, ADSS / Fold change vs veh, ADSS / RFU, GK / Fold change vs veh, GK / RFU, ZNF148 / Fold change vs veh, ZNF148 / RFU, TAF9 / Fold change vs veh, TAF9 / RFU, SLC1A5 / Fold change vs veh, SLC1A5 / RFU, SLMO2 / Fold change vs veh, SLMO2 / RFU, ABCC4 / Fold change vs veh, ABCC4 / RFU, LOC101060439 /// RAP1B / Fold change vs veh, LOC101060439 /// RAP1B / RFU, RFX7 / Fold change vs veh, RFX7 / RFU, GTPBP10 / Fold change vs veh, GTPBP10 / RFU, CNEP1R1 / Fold change vs veh, CNEP1R1 / RFU, BIVM-ERCC5 /// ERCC5 / Fold change vs veh, BIVM-ERCC5 /// ERCC5 / RFU, ILF3 / Fold change vs veh, ILF3 / RFU 11762660_at / Fold change /veh 11762660_at / RFU VCAN (11757783_s_at) / Fold change /veh VCAN (11757783_s_at) / RFU DDX43 (11728927_at) / Fold change /veh DDX43 (11728927_at) / RFU KRT8 (11758188_x_at) / Fold change /veh KRT8 (11758188_x_at) / RFU NKD1 (11759106_at) / Fold change /veh NKD1 (11759106_at) / RFU SRD5A1 (11742802_a_at) / Fold change /veh SRD5A1 (11742802_a_at) / RFU TPSAB1 /// TPSB2 (11721975_s_at) / Fold change /veh TPSAB1 /// TPSB2 (11721975_s_at) / RFU GSTM3 (11746129_a_at) / Fold change /veh GSTM3 (11746129_a_at) / RFU IL23R (11737362_x_at) / Fold change /veh IL23R (11737362_x_at) / RFU TMEM51 (11727254_a_at) / Fold change /veh TMEM51 (11727254_a_at) / RFU PIWIL2 (11732686_x_at) / Fold change /veh PIWIL2 (11732686_x_at) / RFU ORM1 (11744905_x_at) / Fold change /veh ORM1 (11744905_x_at) / RFU CCDC152 (11743942_at) / Fold change /veh CCDC152 (11743942_at) / RFU ECM1 (11717891_a_at) / Fold change /veh ECM1 (11717891_a_at) / RFU IL23R (11748794_a_at) / Fold change /veh IL23R (11748794_a_at) / RFU TNFAIP8L3 (11732012_x_at) / Fold change /veh TNFAIP8L3 (11732012_x_at) / RFU MBOAT4 (11741988_at) / Fold change /veh MBOAT4 (11741988_at) / RFU 11764193_at / Fold change /veh 11764193_at / RFU TMEM53 (11763286_at) / Fold change /veh TMEM53 (11763286_at) / RFU MAGEB2 (11727129_at) / Fold change /veh MAGEB2 (11727129_at) / RFU TMEM200A (11744735_a_at) / Fold change /veh TMEM200A (11744735_a_at) / RFU CCDC152 (11751479_a_at) / Fold change /veh CCDC152 (11751479_a_at) / RFU FAM211A (11726209_a_at) / Fold change /veh FAM211A (11726209_a_at) / RFU RGS16 (11746705_a_at) / Fold change /veh RGS16 (11746705_a_at) / RFU VCAN (11755009_s_at) / Fold change /veh VCAN (11755009_s_at) / RFU RHOB (11743442_s_at) / Fold change /veh RHOB (11743442_s_at) / RFU RGS16 (11720943_a_at) / Fold change /veh RGS16 (11720943_a_at) / RFU RGS16 (11720944_at) / Fold change /veh RGS16 (11720944_at) / RFU, VPS4B / Fold change vs veh, VPS4B / RFU, CREB1 / Fold change vs veh, CREB1 / RFU, DNAJC13 / Fold change vs veh, DNAJC13 / RFU, GNAQ / Fold change vs veh, GNAQ / RFU, CDK5R1 / Fold change vs veh, CDK5R1 / RFU, ZRANB3 / Fold change vs veh, ZRANB3 / RFU, CUL4A / Fold change vs veh, CUL4A / RFU, CCNY / Fold change vs veh, CCNY / RFU, UFL1 / Fold change vs veh, UFL1 / RFU, COG3 / Fold change vs veh, COG3 / RFU, DIAPH2 / Fold change vs veh, DIAPH2 / RFU, SKA2 / Fold change vs veh, SKA2 / RFU, AFF3 / Fold change vs veh, AFF3 / RFU, LMF1 / Fold change vs veh, LMF1 / RFU, IPO11 / Fold change vs veh, IPO11 / RFU, DFFB / Fold change vs veh, DFFB / RFU, FOXP1 / Fold change vs veh, FOXP1 / RFU, CARD8 / Fold change vs veh, CARD8 / RFU, STRN3 / Fold change vs veh, STRN3 / RFU, ADK / Fold change vs veh, ADK / RFU, RASSF2 / Fold change vs veh, RASSF2 / RFU, WIPF1 / Fold change vs veh, WIPF1 / RFU, LARP1B / Fold change vs veh, LARP1B / RFU, RASA1 / Fold change vs veh, RASA1 / RFU, RB1 / Fold change vs veh, RB1 / RFU, PPFIA1 / Fold change vs veh, PPFIA1 / RFU, MAT2A / Fold change vs veh, MAT2A / RFU, CCT5 / Fold change vs veh, CCT5 / RFU, WDR92 / Fold change vs veh, WDR92 / RFU, CUX1 / Fold change vs veh, CUX1 / RFU, TTC7A / Fold change vs veh, TTC7A / RFU, TMEM135 / Fold change vs veh, TMEM135 / RFU, DEPTOR / Fold change vs veh, DEPTOR / RFU, CPM / Fold change vs veh, CPM / RFU, DNAJB6 / Fold change vs veh, DNAJB6 / RFU, CACNA2D3 / Fold change vs veh, CACNA2D3 / RFU, DTX4 / Fold change vs veh, DTX4 / RFU, TFCP2 / Fold change vs veh, TFCP2 / RFU, GMCL1 /// GMCL1P1 / Fold change vs veh, GMCL1 /// GMCL1P1 / RFU, AEBP2 / Fold change vs veh, AEBP2 / RFU, SNHG1 /// SNORD22 /// SNORD25 /// SNORD26 /// SNORD27 /// SNORD28 /// SNORD29 /// SNORD31 / Fold change vs veh, SNHG1 /// SNORD22 /// SNORD25 /// SNORD26 /// SNORD27 /// SNORD28 /// SNORD29 /// SNORD31 / Fold change (Aza/veh), C12orf56 (ProbeSet 11735607_a_at) / Fold change (ACY-1035/veh), C12orf56 (ProbeSet 11735607_a_at) / Fold change (Aza/veh), FGFR1OP (ProbeSet 11751329_s_at) / Fold change (ACY-1035/veh), FGFR1OP (ProbeSet 11751329_s_at) / Fold change (Aza/veh), VPS36 (ProbeSet 11739960_a_at) / Fold change (ACY-1035/veh), VPS36 (ProbeSet 11739960_a_at) / RFU SYPL1 (11715823_x_at) / Fold change /veh SYPL1 (11715823_x_at) / RFU IGFBP7 (11715501_s_at) / Fold change /veh IGFBP7 (11715501_s_at) / RFU REEP3 (11722064_at) / Fold change /veh REEP3 (11722064_at) / RFU IGLL1 (11728026_x_at) / Fold change /veh IGLL1 (11728026_x_at): dose or concentration left out as unconfirmed
Conditions: MV-4-11 cells, 48 hours

Nc1ccc(-c2cccs2)cc1NC(=O)c1ccc2c(c1)cc(C1CC1)n2CCN1CCOCC1 [ACY-1035]
RFU TMPRSS4 (11748680_a_at): 52.95 RFU
